Measurements as given in patent US6291470A, “Indole derivatives process for producing the same and medicinal uses of the same” (Toray Industries, Inc., priority 1992, dated 2001).
Where two headings read alike, the source gives them in different places.

Biological target: T1, δ-opioid receptor (Mus musculus, UniProt P32300)
T1 construct: from tissue; host or cells: vas deferens of male ddy mice
Experiment: δ-opioid antagonist activity against DPDPE in mouse vas deferens (MVD)
Conditions: for Ratio of IC50 Values: DPDPE IC50 with/without 100 nM test compound; for Ratio of IC50 Values / Kb: 20 min; for Kb: against DPDPE, test compound 100 nM
Description: Using mouse vas deferens (MVD), the antagonist activity against DPDPE which is a δ-opioid agonist was checked.
In this experiment, ddy male mice were used. In a Magnus' tube which is filled with Krebes-Henseleit solution (NaCl […]; KCl 4.7 mM; CaCl2 2.5 mM; KH2 PO4 1.1 mM; NaHCO3 25 mM; glucose 11 mM) kept at 37° C., and into which an atmosphere consisting of 5% carbon dioxide and 95% oxygen was flown, vas deferens taken from the animals was suspended. Electric stimulation was applied through ring-shaped platinum electrodes mounted on the upper and lower portions of the tube at a frequency of 0.1 Hz and 5.0 mS duration. The contraction of the tissue was recorded on polygraph using isometric transducer.
Then 100 nM of the test compound was added. Twenty minutes later, DPDPE was begun to be added cumulatively. The ratio of IC50 values in the presence and absence of the test compound, Ke value (the molar concentration of the test compound necessary for translating the dose-effect curve to the curve of twice dose) and pA2 value were determined. The pA2 value was determined by the method of Shild et al (Shild, H. O., Br. J. Pharmac. Chamotehr., 4, 277 (1949)). That is, the logarithm of the test compound (log[test compound]) was plotted along the abscissa and the logarithm of the value obtained by subtracting 1 from the ratio of IC50 values was plotted in the presence and absence of the test compound [log(dose ratio-1)] along the ordinate. The pA2 value was determined from the value on the abscissa when the value on the ordinate of the obtained line is 0.

T1 sequence (P32300 whole entry): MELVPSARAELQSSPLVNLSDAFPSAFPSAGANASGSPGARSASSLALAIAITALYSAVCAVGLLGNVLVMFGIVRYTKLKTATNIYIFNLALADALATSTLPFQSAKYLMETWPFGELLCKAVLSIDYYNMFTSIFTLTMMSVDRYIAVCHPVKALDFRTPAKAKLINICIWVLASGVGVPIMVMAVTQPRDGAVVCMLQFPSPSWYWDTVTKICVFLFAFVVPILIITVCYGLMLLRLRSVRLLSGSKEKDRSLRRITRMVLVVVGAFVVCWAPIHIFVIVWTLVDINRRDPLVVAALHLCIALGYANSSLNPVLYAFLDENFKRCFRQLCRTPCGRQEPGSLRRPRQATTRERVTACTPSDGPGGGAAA

SMILES	Ratio of IC50 Values	Kb (read-out: Ke) [nM]	Kb (read-out: pA2 (converted)) [nM]	δ-antagonist activity relative to NTI (times that of NTI)
O=[N+]([O-])c1ccc2c3c([nH]c2c1)[C@@H]1Oc2c(O)ccc4c2[C@@]12CCN(CC1CC1)[C@H](C4)[C@]2(O)C3 [Compound 79, 17-cyclopropylmethyl-6,7-didehydro-4,5α-epoxy-3,14β-dihydroxy-6'-nitro-6,7-2',3'-indolomorphinan]	60.6	1.68		
Oc1ccc2c3c1O[C@H]1c4[nH]c5c(ccc6cnccc65)c4C[C@@]4(O)[C@@H](C2)N(CC2CC2)CC[C@]314 [Compound 156, 17-cyclopropylmethyl-3,14β-dihydroxy-4,5α-epoxy-6,7-didehydromorphinano[6,7-b]pyrido[4,3-g]indole]	26.6	3.91		
O=C(NCC1CC1)c1cccc2[nH]c3c(c12)C[C@@]1(O)[C@H]2Cc4ccc(O)c5c4[C@@]1(CCN2CC1CC1)[C@H]3O5 [Compound 46, 17-cyclopropylmethyl-6,7-didehydro-4,5α-epoxy-3,14β-dihydroxy-4'-(N-cyclopropylmethylcarbamoyl)-6,7-2',3'-indolomorphinan]	1.39	256		
CN(C)S(=O)(=O)c1ccc2c3c([nH]c2c1)[C@@H]1Oc2c(O)ccc4c2[C@@]12CCN(CC1CC1)[C@H](C4)[C@]2(O)C3 [Compound 51, 17-cyclopropylmethyl-6,7-didehydro-4,5α-epoxy-3,14β-dihydroxy-6'-(N,N-dimethylsulfamoyl)-6,7-2',3'-indolomorphinan]	33.2	3.11	2.69	
N#Cc1ccc2[nH]c3c(c2c1)C[C@@]1(O)[C@H]2Cc4ccc(O)c5c4[C@@]1(CCN2CC1CC1)[C@H]3O5 [Compound 8, 17-cyclopropylmethyl-6,7-didehydro-4,5α-epoxy-3,14β-dihydroxy-5'-cyano-6,7-2',3'-indolomorphinan]	3.60	38.5		
OCCc1cccc2[nH]c3c(c12)C[C@@]1(O)[C@H]2Cc4ccc(O)c5c4[C@@]1(CCN2CC1CC1)[C@H]3O5 [Compound 40, 17-cyclopropylmethyl-6,7-didehydro-4,5α-epoxy-3, 14β-dihydroxy-4'-(2-hydroxyethyl)-6,7-2',3'-indolomorphinan]	4.60	27.8		
CS(=O)(=O)c1ccc2[nH]c3c(c2c1)C[C@@]1(O)[C@H]2Cc4ccc(O)c5c4[C@@]1(CCN2CC1CC1)[C@H]3O5 [Compound 6, 17-cyclopropylmethyl-6,7-didehydro-4,5α-epoxy-3,14β-dihydroxy-5'-methylsulfonyl-6,7-2',3'-indolomorphinan]	12.6	8.62		
CS(=O)(=O)c1ccc2c3c([nH]c2c1)[C@@H]1Oc2c(O)ccc4c2[C@@]12CCN(CC1CC1)[C@H](C4)[C@]2(O)C3 [Compound 188, 17-cyclopropylmethyl-6,7-didehydro-4,5α-epoxy-3,14β-dihydroxy-6'-methylsulfonyl-6,7-2',3'-indolomorphinan]	56.0	1.82		
CCOC(=O)Cc1cccc2[nH]c3c(c12)C[C@@]1(O)[C@H]2Cc4ccc(O)c5c4[C@@]1(CCN2CC1CC1)[C@H]3O5 [Compound 48, 17-cyclopropylmethyl-6,7-didehydro-4,5α-epoxy-3,14β-dihydroxy-4'-ethoxycarbonylmethyl-6,7-2',3'-indolomorphinan]	5.88	20.5		
COC(=O)c1cccc2[nH]c3c(c12)C[C@@]1(O)[C@H]2Cc4ccc(O)c5c4[C@@]1(CCN2CC1CC1)[C@H]3O5 [Compound 76, 17-cyclopropylmethyl-6,7-didehydro-4,5α-epoxy-3,14β-dihydroxy-4'-methoxycarbonyl-6,7-2',3'-indolomorphinan]	6.82	17.2		
OCCc1ccc2c3c([nH]c2c1)[C@@H]1Oc2c(O)ccc4c2[C@@]12CCN(CC1CC1)[C@H](C4)[C@]2(O)C3 [Compound 41, 17-cyclopropylmethyl-6,7-didehydro-4,5α-epoxy-3,14β-dihydroxy-6'-(2-hydroxyethyl)-6,7-2',3'-indolomorphinan]	22.1	4.74		
COC(=O)c1ccc2c3c([nH]c2c1)[C@@H]1Oc2c(O)ccc4c2[C@@]12CCN(CC1CC1)[C@H](C4)[C@]2(O)C3 [Compound 77, 17-cyclopropylmethyl-6,7-didehydro-4,5α-epoxy-3,14β-dihydroxy-6'-methoxycarbonyl-6,7-2',3'-indolomorphinan]	742	0.13		1.3-1.6 times
Oc1ccc2c3c1O[C@H]1c4[nH]c5c(C(F)(F)F)cccc5c4C[C@@]4(O)[C@@H](C2)N(CC2CC2)CC[C@]314 [Compound 118, 17-cyclopropylmethyl-6,7-didehydro-4,5α-epoxy-3,14β-dihydroxy-7'-trifluoromethyl-6,7-2',3'-indolomorphinan]	52.9	1.93		
NS(=O)(=O)c1ccc2[nH]c3c(c2c1)C[C@@]1(O)[C@H]2Cc4ccc(O)c5c4[C@@]1(CCN2CC1CC1)[C@H]3O5 [Compound 5, 17-cyclopropylmethyl-6,7-didehydro-4,5α-epoxy-3,14β-dihydroxy-5'-sulfamoyl-6,7-2',3'-indolomorphinan]	4.36	29.8		
CCOC(=O)c1ccc2[nH]c3c(c2c1)C[C@@]1(O)[C@H]2Cc4ccc(O)c5c4[C@@]1(CCN2CC1CC1)[C@H]3O5 [Compound 3, 17-cyclopropylmethyl-6,7-didehydro-4,5α-epoxy-3,14β-dihydroxy-5'-ethoxycarbonyl-6,7-2',3'-indolomorphinan]	5.34	23		
C=CCN1CC[C@]23c4c5ccc(O)c4O[C@H]2c2[nH]c4cccc(C(=O)OC)c4c2C[C@@]3(O)[C@H]1C5 [Compound 114, 17-allyl-6,7-didehydro-4,5α-epoxy-3,14β-dihydroxy-4'-methoxycarbonyl-6,7-2',3'-indolomorphinan]	20.7	5.08		
Oc1ccc2c3c1O[C@H]1c4[nH]c5ccc(OC(F)(F)F)cc5c4C[C@@]4(O)[C@@H](C2)N(CC2CC2)CC[C@]314 [Compound 4, 17-cyclopropylmethyl-6,7-didehydro-4,5α-epoxy-3,14β-dihydroxy-5'-trifluoromethoxy-6,7-2',3'-indolomorphinan]	7.95	14.4		
CCOC(=O)Cc1ccc2c3c([nH]c2c1)[C@@H]1Oc2c(O)ccc4c2[C@@]12CCN(CC1CC1)[C@H](C4)[C@]2(O)C3 [Compound 49, 17-cyclopropylmethyl-6,7-didehydro-4,5α-epoxy-3,14β-dihydroxy-6'-ethoxycarbonylmethyl-6,7-2',3'-indolomorphinan]	27.8	3.73		
Oc1ccc2c3c1O[C@H]1c4[nH]c5ccc(I)cc5c4C[C@@]4(O)[C@@H](C2)N(CC2CC2)CC[C@]314 [Compound 1, 17-cyclopropylmethyl-6,7-didehydro-4,5α-epoxy-3,14β-dihydroxy-5'-iodo-6,7-2',3'-indolomorphinan]	8.88	12.7		
CS(=O)(=O)c1cccc2c3c([nH]c12)[C@@H]1Oc2c(O)ccc4c2[C@@]12CCN(CC1CC1)[C@H](C4)[C@]2(O)C3 [Compound 190, 17-cyclopropylmethyl-6,7-didehydro-4,5α-epoxy-3,14β-dihydroxy-7'-methylsulfonyl-6,7-2',3'-indolomorphinan]	698	0.14		1.3-1.6 times
C=CCN1CC[C@]23c4c5ccc(O)c4O[C@H]2c2[nH]c4cc(C(=O)OC)ccc4c2C[C@@]3(O)[C@H]1C5 [Compound 115, 17-allyl-6,7-didehydro-4,5α-epoxy-3,14β-dihydroxy-6'-methoxycarbonyl-6,7-2',3'-indolomorphinan]	75.4	1.34		
